molecular target: NaV 1.8 channel (Homo sapiens, UniProt Q9Y5Y9); assay: Activity against NaV 1.8 channel (optical membrane potential assay); format: cell-based
In short: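 FRET membrane-potential assay (coumarin CC2-DMPE donor, oxonol DiSBAC2(3) acceptor plus veratridine) on VIPR; compound added with oxonol for 20–30 min before Na+ add-back stimulation. Activity from background-subtracted 460/580 nm ratio change (baseline 2–7 s, response 15–24 s) relative to tetracaine positive and drug-free negative controls.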

Chain of NaV 1.8 channel (Q9Y5Y9 whole entry): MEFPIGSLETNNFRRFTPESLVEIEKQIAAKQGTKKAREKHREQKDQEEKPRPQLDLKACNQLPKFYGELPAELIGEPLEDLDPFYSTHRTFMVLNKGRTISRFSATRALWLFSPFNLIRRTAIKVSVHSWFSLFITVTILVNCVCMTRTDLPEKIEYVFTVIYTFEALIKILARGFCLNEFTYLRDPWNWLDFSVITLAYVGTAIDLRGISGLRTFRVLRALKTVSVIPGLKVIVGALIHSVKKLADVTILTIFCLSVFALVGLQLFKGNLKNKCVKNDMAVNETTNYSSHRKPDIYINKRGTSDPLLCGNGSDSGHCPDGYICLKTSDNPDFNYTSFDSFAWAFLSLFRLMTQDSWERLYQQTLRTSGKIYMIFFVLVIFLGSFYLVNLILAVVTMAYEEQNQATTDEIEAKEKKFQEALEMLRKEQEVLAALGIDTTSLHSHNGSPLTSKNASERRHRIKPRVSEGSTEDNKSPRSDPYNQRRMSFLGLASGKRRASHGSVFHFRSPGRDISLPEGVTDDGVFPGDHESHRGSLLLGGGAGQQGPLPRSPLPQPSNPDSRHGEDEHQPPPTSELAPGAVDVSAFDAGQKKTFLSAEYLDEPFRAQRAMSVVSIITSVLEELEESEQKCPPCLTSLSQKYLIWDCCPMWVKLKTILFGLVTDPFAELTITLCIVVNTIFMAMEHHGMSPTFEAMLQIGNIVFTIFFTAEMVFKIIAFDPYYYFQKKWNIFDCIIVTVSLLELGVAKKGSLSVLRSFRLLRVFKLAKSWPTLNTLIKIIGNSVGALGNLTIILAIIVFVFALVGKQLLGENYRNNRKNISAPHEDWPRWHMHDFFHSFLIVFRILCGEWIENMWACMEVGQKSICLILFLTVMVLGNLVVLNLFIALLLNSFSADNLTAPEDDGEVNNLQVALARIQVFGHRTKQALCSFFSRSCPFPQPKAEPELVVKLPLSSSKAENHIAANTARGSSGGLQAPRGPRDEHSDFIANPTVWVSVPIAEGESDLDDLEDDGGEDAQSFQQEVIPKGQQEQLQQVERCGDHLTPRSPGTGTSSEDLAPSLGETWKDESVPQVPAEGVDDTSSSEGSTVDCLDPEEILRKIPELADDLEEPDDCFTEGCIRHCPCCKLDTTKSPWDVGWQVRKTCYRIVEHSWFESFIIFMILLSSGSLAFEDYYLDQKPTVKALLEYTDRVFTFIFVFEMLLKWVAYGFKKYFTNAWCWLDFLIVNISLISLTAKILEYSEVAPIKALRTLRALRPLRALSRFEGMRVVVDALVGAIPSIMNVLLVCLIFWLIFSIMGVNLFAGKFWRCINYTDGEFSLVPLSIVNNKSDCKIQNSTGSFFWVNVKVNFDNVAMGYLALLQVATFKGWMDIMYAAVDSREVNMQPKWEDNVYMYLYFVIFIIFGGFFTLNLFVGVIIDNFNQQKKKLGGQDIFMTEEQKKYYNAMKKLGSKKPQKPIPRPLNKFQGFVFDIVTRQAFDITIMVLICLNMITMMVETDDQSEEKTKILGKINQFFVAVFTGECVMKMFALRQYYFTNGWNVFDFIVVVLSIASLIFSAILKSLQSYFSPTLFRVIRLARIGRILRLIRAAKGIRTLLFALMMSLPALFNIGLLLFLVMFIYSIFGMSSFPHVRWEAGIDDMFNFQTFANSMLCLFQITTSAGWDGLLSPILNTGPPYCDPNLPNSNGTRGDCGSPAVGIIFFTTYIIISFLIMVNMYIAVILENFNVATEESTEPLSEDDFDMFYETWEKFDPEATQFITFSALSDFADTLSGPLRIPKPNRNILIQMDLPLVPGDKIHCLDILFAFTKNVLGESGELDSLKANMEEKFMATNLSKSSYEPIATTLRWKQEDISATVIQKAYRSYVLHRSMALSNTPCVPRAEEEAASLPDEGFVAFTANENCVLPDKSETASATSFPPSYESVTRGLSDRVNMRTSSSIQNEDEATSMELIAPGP

IC50 | SMILES
> 10 µM | Cc1ccc2c(N3CC[C@@H](NC(=O)c4cccc(N(C)C)c4)C3)nc(-c3ccccc3O)nc2c1 [Example 342, 3-(Dimethylamino)-N—((R)-1-(2-(2-hydroxyphenyl)-7-methylquinazolin-4-yl)pyrrolidin-3-yl)benzamide]
> 10 µM | Cc1ccc2c(N3CC[C@@H](NC(=O)CCc4ccccn4)C3)nc(-c3ccccc3O)nc2c1 [Example 318, N—((R)-1-(2-(2-Hydroxyphenyl)-7-methylquinazolin-4-yl)pyrrolidin-3-yl)-3-(pyridin-2-yl)propanamide]
2 to 10 µM | Cc1ccc2c(N3CCCC(C(=O)NCc4cccnc4)C3)nc(-c3ccccc3O)nc2c1 (stereo not drawn) [Example 201, 1-(2-(2-Hydroxyphenyl)-7-methylquinazolin-4-yl)-N-((pyridin-3-yl)methyl)piperidine-3-carboxamide]
< 2 µM | Cc1ccc2c(N3CC[C@@H](NC(=O)OCc4ccccc4)C3)nc(-c3ccccc3O)nc2c1 [Example 309, (R)-{1-[2-(2-Hydroxy-phenyl)-7-methyl-quinazolin-4-yl]-pyrrolidin-3-yl}-carbamic acid benzyl ester]
> 10 µM | O=C(N[C@@H]1CCN(c2nc(-c3ccccc3O)nc3ccc(F)cc23)C1)c1cccnc1 [Example 349, N—((R)-1-(6-Fluoro-2-(2-hydroxyphenyl)quinazolin-4-yl)pyrrolidin-3-yl)nicotinamide]

The next lines start with the molecule.

SMILES | IC50
COCCOC(=O)NC[C@@H]1CCCN(c2nc(-c3c(O)cccc3F)nc3cc(C)ccc23)C1 [Example 261, 2-Methoxyethyl ((S)-1-(2-(2-fluoro-6-hydroxyphenyl)-7-methylquinazolin-4-yl)piperidin-3-yl)methylcarbamate] | 2 to 10 µM
Cc1ccc2c(N3CCC(NC(=O)COC4CC(C)CCC4C(C)C)CC3)nc(-c3ccccc3O)nc2c1 (stereo not drawn) [Example 222, 2-(2-Isopropyl-5-methylcyclohexyloxy)-N-(1-(2-(2-hydroxyphenyl)-7-methylquinazolin-4-yl)piperidin-4-yl)acetamide] | > 10 µM
O=C(CC1CCOCC1)N1CCN(c2nc(-c3ccccc3O)nc3ccc(F)cc23)CC1 [Example 128, 1-(4-(6-Fluoro-2-(2-hydroxyphenyl)quinazolin-4-yl)piperazin-1-yl)-2-(tetrahydro-2H-pyran-4-yl)ethanone] | 2 to 10 µM
O=C(OCc1cccnc1)N1CCN(c2nc(-c3ccccc3O)nc3ccccc23)CC1 [Example 107, (Pyridin-3-yl)methyl 4-(2-(2-hydroxyphenyl)quinazolin-4-yl)piperazine-1-carboxylate] | 2 to 10 µM
Cc1ccc2c(N3CCN(C(=O)C(O)CC(F)(F)F)CC3)nc(-c3ccccc3O)nc2c1 (stereo not drawn) [Example 112, 4,4,4-Trifluoro-2-hydroxy-1-(4-(2-(2-hydroxyphenyl)-7-methylquinazolin-4-yl)piperazin-1-yl)butan-1-one] | > 10 µM
C[C@H](O)CC(=O)N1CCN(c2nc(-c3ccccc3O)nc3ccccc23)CC1 [Example 109, (S)-3-Hydroxy-1-(4-(2-(2-hydroxyphenyl)quinazolin-4-yl)piperazin-1-yl)butan-1-one] | 2 to 10 µM
Cc1ccc2c(N3CC[C@@H](CNC(=O)OCC(C)(C)C)C3)nc(-c3ccccc3O)nc2c1 [Example 369, Neopentyl ((S)-1-(2-(2-hydroxyphenyl)-7-methylquinazolin-4-yl)pyrrolidin-3-yl)methylcarbamate] | < 2 µM
CC[C@@H](O)C(=O)N1CCN(c2nc(-c3ccccc3O)nc3ccccc23)CC1 [Example 118, (R)-2-Hydroxy-1-(4-(2-(2-hydroxyphenyl)quinazolin-4-yl)piperazin-1-yl)butan-1-one] | 2 to 10 µM
CCOC(=O)C(=O)N1CCN(c2nc(-c3ccccc3O)nc3cc(C)ccc23)CC1 [Example 195] | < 2 µM
Cc1ccc2c(N3CCN(C(=O)OCC4CCOC4)CC3)nc(-c3ccccc3O)nc2c1 (stereo not drawn) [Example 184] | 2 to 10 µM

From US7928107B2, “Quinazolines useful as modulators of ion channels” (Vertex Pharmaceuticals Incorporated, priority 2004, dated 2011)
